Reference: patent US20070128217A1 (priority 2003, published 2007)

Legend:
[1] = system: antibodies in sera from SARS patients (sera 1a, 1b, 2, 6, 37, 62, London, SARS-yellow, SARS-green); assay type: binding, human; parameters: Binding of serum 6 to linear peptides of protein X1 of SARS-CoV Urbani / Binding of serum 37 to linear peptides of protein X1 of SARS-CoV Urbani / Binding of serum 6 to looped/cyclic peptide (PEPSCAN-ELISA) / Binding of serum 37 to looped/cyclic peptide (PEPSCAN-ELISA) / Binding of serum 37 to looped/cyclic peptides of protein X1 of SARS-CoV Urbani / Binding of serum 6 to linear peptides of protein X2 / Binding of serum 37 to linear peptides of protein X2 / Binding of serum 37 to looped/cyclic peptides of protein X2 of SARS-CoV Urbani / Binding of serum 6 to linear peptides of protein M of SARS-CoV Urbani / Binding of serum 37 to linear peptides of protein M of SARS-CoV Urbani / Binding of serum 6 to looped/cyclic peptides of protein M of SARS-CoV Urbani / Binding of serum 37 to looped/cyclic peptides of protein M of SARS-CoV Urbani / Binding of serum 6 to linear peptides of protein X3 of SARS-CoV Urbani / Binding of serum 37 to linear peptides of protein X3 of SARS-CoV Urbani / Binding of serum 37 to looped/cyclic peptides of protein X3 of SARS-CoV Urbani / Binding of serum 6 to linear peptides of protein X4 of SARS-CoV Urbani / Binding of serum 37 to linear peptides of protein X4 of SARS-CoV Urbani / Binding of serum 37 to looped/cyclic peptides of protein X4 of SARS-CoV Urbani / Binding of serum 6 to linear peptides of protein X5 of SARS-CoV Urbani / Binding of serum 37 to linear peptides of protein X5 of SARS-CoV Urbani / Binding of serum 37 to looped/cyclic peptides of protein X5 of SARS-CoV Urbani / Binding of serum 6 to linear peptides of protein N of SARS-CoV Urbani / Binding of serum 37 to linear peptides of protein N of SARS-CoV Urbani / Binding of serum 6 to linear peptide (PEPSCAN-ELISA) / Binding of serum 1a to looped/cyclic peptides of protein N of SARS-CoV Urbani / Binding of serum 1b to looped/cyclic peptides of protein N of SARS-CoV Urbani / Binding of serum 2 to looped/cyclic peptides of protein N of SARS-CoV Urbani / Binding of serum 6 to looped/cyclic peptides of protein N of SARS-CoV Urbani / Binding of serum 37 to looped/cyclic peptides of protein N of SARS-CoV Urbani / Binding of serum 62 to looped/cyclic peptides of protein N of SARS-CoV Urbani / Binding of serum London to looped/cyclic peptides of protein N of SARS-CoV Urbani / Binding of serum SARS-green to looped/cyclic peptides of protein N of SARS-CoV Urbani: unit not given here
[2] = system: control sera (pooled serum of ten healthy LUMC hospital workers; commercial negative donor pooled serum from the Dutch bloodbank); assay type: binding, human; parameters: Binding of Control serum LUMC to linear peptides / Binding of Control serum Blood-bank to linear peptides / Binding of Control serum LUMC to looped peptides / Binding of Control Serum Blood-Bank to Looped peptides / Binding of Control serum LUMC to linear peptides of the protein M of SARS-CoV Urbani / Binding of Control serum Blood-bank to linear peptides of the protein M of SARS-CoV Urbani / Binding of Control serum LUMC to looped peptides of the protein M of SARS-CoV Urbani / Binding of Control Serum Blood-Bank to Looped peptides of the protein M of SARS-CoV Urbani: unit not given here
[3] = system: rabbit serum obtained by immunizing a rabbit with the SARS-CoV strain Frankfurt 1; assay type: binding; parameters: Binding of a rabbit serum to linear peptides / Binding of a rabbit serum to looped peptides / Rabbit serum linear peptides / Rabbit serum looped peptides / Binding of a rabbit serum to linear peptides of protein N of SARS-CoV Urbani (Rabbit serum linear peptides) / Binding of a rabbit serum to looped/cyclic peptides of protein N of SARS-CoV Urbani (Rabbit serum looped peptides): unit not given here

## DIKDLPKEITVATSR
[1]
  Binding of serum 1a to linear peptides of protein M of SARS-CoV Urbani: 0.7
  Binding of serum 1a to looped/cyclic peptides of protein M of SARS-CoV Urbani: 0.6
  Binding of serum 1b to linear peptides of protein M of SARS-CoV Urbani: 0.5
  Binding of serum 1b to looped/cyclic peptides of protein M of SARS-CoV Urbani: 0.6
  Binding of serum 2 to linear peptides of protein M of SARS-CoV Urbani: 0.5
  Binding of serum 2 to looped/cyclic peptides of protein M of SARS-CoV Urbani: 0.7
  Binding of serum 6 to linear peptides of protein M of SARS-CoV Urbani: 0.5
  Binding of serum 6 to looped/cyclic peptides of protein M of SARS-CoV Urbani: 0.8
  Binding of serum 37 to linear peptides of protein M of SARS-CoV Urbani: 0.6
  Binding of serum 37 to looped/cyclic peptides of protein M of SARS-CoV Urbani: 0.9
  Binding of serum 62 to linear peptides of protein M of SARS-CoV Urbani: 0.5
  Binding of serum 62 to looped/cyclic peptides of protein M of SARS-CoV Urbani: 0.7
  Binding of serum London to linear peptides of protein M of SARS-CoV Urbani: 0.4
  Binding of serum London to looped/cyclic peptides of protein M of SARS-CoV Urbani: 0.3
  Binding of serum SARS-green to linear peptides of protein M of SARS-CoV Urbani: 0.5
  Binding of serum SARS-green to looped/cyclic peptides of protein M of SARS-CoV Urbani: 0.4
  Binding of serum SARS-yellow to linear peptides of protein M of SARS-CoV Urbani: 0.2
  Binding of serum SARS-yellow to looped/cyclic peptides of protein M of SARS-CoV Urbani: 0.7
[2]
  Binding of Control Serum Blood-Bank to Looped peptides of the protein M of SARS-CoV Urbani: 0.8
  Binding of Control serum Blood-bank to linear peptides of the protein M of SARS-CoV Urbani: 0.6
  Binding of Control serum LUMC to linear peptides of the protein M of SARS-CoV Urbani: 0.5
  Binding of Control serum LUMC to looped peptides of the protein M of SARS-CoV Urbani: 0.9
[3]
  Rabbit serum linear peptides: 0.2
  Rabbit serum looped peptides: 0.3

## DLPKEITVATSRTLS
[1]
  Binding of serum 1a to linear peptides of protein M of SARS-CoV Urbani: 0.7
  Binding of serum 1a to looped/cyclic peptides of protein M of SARS-CoV Urbani: 0.5
  Binding of serum 1b to linear peptides of protein M of SARS-CoV Urbani: 0.2
  Binding of serum 1b to looped/cyclic peptides of protein M of SARS-CoV Urbani: 0.5
  Binding of serum 2 to linear peptides of protein M of SARS-CoV Urbani: 0.7
  Binding of serum 2 to looped/cyclic peptides of protein M of SARS-CoV Urbani: 0.6
  Binding of serum 6 to linear peptides of protein M of SARS-CoV Urbani: 0.2
  Binding of serum 6 to looped/cyclic peptides of protein M of SARS-CoV Urbani: 0.8
  Binding of serum 37 to linear peptides of protein M of SARS-CoV Urbani: 0.5
  Binding of serum 37 to looped/cyclic peptides of protein M of SARS-CoV Urbani: 0.7
  Binding of serum 62 to linear peptides of protein M of SARS-CoV Urbani: 0.7
  Binding of serum 62 to looped/cyclic peptides of protein M of SARS-CoV Urbani: 0.6
  Binding of serum London to linear peptides of protein M of SARS-CoV Urbani: 0.3
  Binding of serum London to looped/cyclic peptides of protein M of SARS-CoV Urbani: 0.4
  Binding of serum SARS-green to linear peptides of protein M of SARS-CoV Urbani: 0.3
  Binding of serum SARS-green to looped/cyclic peptides of protein M of SARS-CoV Urbani: 0.4
  Binding of serum SARS-yellow to linear peptides of protein M of SARS-CoV Urbani: 0.0
  Binding of serum SARS-yellow to looped/cyclic peptides of protein M of SARS-CoV Urbani: 0.7
[2]
  Binding of Control Serum Blood-Bank to Looped peptides of the protein M of SARS-CoV Urbani: 0.7
  Binding of Control serum Blood-bank to linear peptides of the protein M of SARS-CoV Urbani: 0.5
  Binding of Control serum LUMC to linear peptides of the protein M of SARS-CoV Urbani: 0.2
  Binding of Control serum LUMC to looped peptides of the protein M of SARS-CoV Urbani: 0.7
[3]
  Rabbit serum linear peptides: 0.1
  Rabbit serum looped peptides: 0.3

## DTIVVTEGDGISTPK
[1]
  Binding of serum 1a to linear peptides of protein X1 of SARS-CoV Urbani: 0.5
  Binding of serum 1a to looped/cyclic peptides of protein X1 of SARS-CoV Urbani: 0.3
  Binding of serum 1b to linear peptides of protein X1 of SARS-CoV Urbani: 0.4
  Binding of serum 1b to looped/cyclic peptides of protein X1 of SARS-CoV Urbani: 0.2
  Binding of serum 2 to linear peptides of protein X1 of SARS-CoV Urbani: 0.3
  Binding of serum 2 to looped/cyclic peptides of protein X1 of SARS-CoV Urbani: 0.1
  Binding of serum 6 to linear peptides of protein X1 of SARS-CoV Urbani: 0.4
  Binding of serum 6 to looped/cyclic peptides of protein X1 of SARS-CoV Urbani: 0.2
  Binding of serum 37 to linear peptides of protein X1 of SARS-CoV Urbani: 0.4
  Binding of serum 37 to looped/cyclic peptides of protein X1 of SARS-CoV Urbani: 0.3
  Binding of serum 62 to linear peptides of protein X1 of SARS-CoV Urbani: 0.3
  Binding of serum 62 to looped/cyclic peptides of protein X1 of SARS-CoV Urbani: 0.3
  Binding of serum London to linear peptides of protein X1 of SARS-CoV Urbani: 0.2
  Binding of serum London to looped/cyclic peptides of protein X1 of SARS-CoV Urbani: 0.2
  Binding of serum SARS-green to linear peptides of protein X1 of SARS-CoV Urbani: 0.2
  Binding of serum SARS-green to looped/cyclic peptides of protein X1 of SARS-CoV Urbani: 0.1
  Binding of serum SARS-yellow to linear peptides of protein X1 of SARS-CoV Urbani: 0.1
  Binding of serum SARS-yellow to looped/cyclic peptides of protein X1 of SARS-CoV Urbani: 0.1
[2]
  Binding of Control Serum Blood-Bank to Looped peptides: 0.4
  Binding of Control serum Blood-bank to linear peptides: 0.4
  Binding of Control serum LUMC to linear peptides: 0.3
  Binding of Control serum LUMC to looped peptides: 0.3
[3]
  Binding of a rabbit serum to linear peptides: 0.1
  Binding of a rabbit serum to looped peptides: 0.5

## DYVVVHGYFTEVYYQ
[1]
  Binding of serum 1a to linear peptides of protein X1 of SARS-CoV Urbani: 0.6
  Binding of serum 1a to looped/cyclic peptides of protein X1 of SARS-CoV Urbani: 0.6
  Binding of serum 1b to linear peptides of protein X1 of SARS-CoV Urbani: 0.5
  Binding of serum 1b to looped/cyclic peptides of protein X1 of SARS-CoV Urbani: 0.5
  Binding of serum 2 to linear peptides of protein X1 of SARS-CoV Urbani: 0.4
  Binding of serum 2 to looped/cyclic peptides of protein X1 of SARS-CoV Urbani: 0.5
  Binding of serum 6 to linear peptides of protein X1 of SARS-CoV Urbani: 0.4
  Binding of serum 6 to looped/cyclic peptides of protein X1 of SARS-CoV Urbani: 0.3
  Binding of serum 37 to linear peptides of protein X1 of SARS-CoV Urbani: 0.6
  Binding of serum 37 to looped/cyclic peptides of protein X1 of SARS-CoV Urbani: 0.7
  Binding of serum 62 to linear peptides of protein X1 of SARS-CoV Urbani: 0.4
  Binding of serum 62 to looped/cyclic peptides of protein X1 of SARS-CoV Urbani: 0.7
  Binding of serum London to linear peptides of protein X1 of SARS-CoV Urbani: 0.2
  Binding of serum London to looped/cyclic peptides of protein X1 of SARS-CoV Urbani: 0.2
  Binding of serum SARS-green to linear peptides of protein X1 of SARS-CoV Urbani: 0.3
  Binding of serum SARS-green to looped/cyclic peptides of protein X1 of SARS-CoV Urbani: 0.3
  Binding of serum SARS-yellow to linear peptides of protein X1 of SARS-CoV Urbani: 0.3
  Binding of serum SARS-yellow to looped/cyclic peptides of protein X1 of SARS-CoV Urbani: 0.5
[2]
  Binding of Control Serum Blood-Bank to Looped peptides: 0.5
  Binding of Control serum Blood-bank to linear peptides: 0.5
  Binding of Control serum LUMC to linear peptides: 0.7
  Binding of Control serum LUMC to looped peptides: 0.7
[3]
  Binding of a rabbit serum to linear peptides: 0.1
  Binding of a rabbit serum to looped peptides: 0.6

## EAQFLYLYALIYFLQ
[1]
  Binding of serum 1a to linear peptides of protein X1 of SARS-CoV Urbani: 0.7
  Binding of serum 1a to looped/cyclic peptide (PEPSCAN-ELISA): 0.5
  Binding of serum 1b to linear peptides of protein X1 of SARS-CoV Urbani: 0.4
  Binding of serum 1b to looped/cyclic peptide (PEPSCAN-ELISA): 0.3
  Binding of serum 2 to linear peptides of protein X1 of SARS-CoV Urbani: 0.6
  Binding of serum 2 to looped/cyclic peptide (PEPSCAN-ELISA): 0.4
  Binding of serum 6 to linear peptides of protein X1 of SARS-CoV Urbani: 0.4
  Binding of serum 6 to looped/cyclic peptide (PEPSCAN-ELISA): 0.2
  Binding of serum 37 to linear peptides of protein X1 of SARS-CoV Urbani: 0.5
  Binding of serum 37 to looped/cyclic peptide (PEPSCAN-ELISA): 0.5
  Binding of serum 62 to linear peptides of protein X1 of SARS-CoV Urbani: 0.4
  Binding of serum 62 to looped/cyclic peptide (PEPSCAN-ELISA): 0.5
  Binding of serum London to linear peptides of protein X1 of SARS-CoV Urbani: 0.2
  Binding of serum London to looped/cyclic peptide (PEPSCAN-ELISA): 0.2
  Binding of serum SARS-green to linear peptides of protein X1 of SARS-CoV Urbani: 0.1
  Binding of serum SARS-green to looped/cyclic peptide (PEPSCAN-ELISA): 0.2
  Binding of serum SARS-yellow to linear peptides of protein X1 of SARS-CoV Urbani: 0.2
  Binding of serum SARS-yellow to looped/cyclic peptide (PEPSCAN-ELISA): 0.3
[2]
  Binding of Control Serum Blood-Bank to Looped peptides: 0.4
  Binding of Control serum Blood-bank to linear peptides: 0.3
  Binding of Control serum LUMC to linear peptides: 0.5
  Binding of Control serum LUMC to looped peptides: 0.5
[3]
  Binding of a rabbit serum to linear peptides: 0.1
  Binding of a rabbit serum to looped peptides: 0.5
